Test results from patent US10125100B2, “Kinase inhibitors” (Respivert Limited, priority 2014, dated 2018).

Tests used:
[1] = test system: Jurkat cells; test: (r) Cell cytotoxicity assay; type: cell-based, human; details: 24 hours
Outline: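 Jurkat cells (1×10^5/well, RPMI + 10% FBS) exposed to compound at 20, 5 or 1 μg/mL final (1.0% DMSO control) for 24 h at 37° C., 5% CO2. Then stained with 7.5 μg/mL propidium iodide for 15 min. % viability = PI-negative cells by flow cytometry, normalized to DMSO.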

[2] = biological target: p38 MAPKα (MAPK14) (Homo sapiens (Human), UniProt Q16539); test: p38 MAPKα enzyme inhibition (Method 2), Z-LYTE FRET; type: biochemical
Outline: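 Enzyme (200 ng/mL solution) was preincubated 2 h at RT with compound solutions of 1, 0.1, 0.01 or 0.001 μg/mL, and inhibition was read indirectly via MAPKAP-K2 activation/phosphorylation. After a 1 h RT reaction and 1 h protease development, phosphorylation was derived from the coumarin/fluorescein emission ratio.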

[3] = biological target: Syk (Homo sapiens (Human), UniProt P43405); test: Syk enzyme inhibition, Z-LYTE FRET; type: biochemical
Outline: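 Syk or c-Src enzyme (3000 or 2000 ng/mL solutions) was preincubated 2 h at RT with compound solutions at 1, 0.1, 0.01 or 0.001 µg/mL. Z-LYTE FRET peptide (8 µM solution) and ATP (800 µM solution for c-Src, 60 µM for Syk) were then added for 1 h, followed by protease development for 1 h. Phosphorylation was read as the coumarin/fluorescein emission ratio.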

[4] = biological target: c-Src (Homo sapiens (Human), UniProt P12931); test: c-Src enzyme inhibition, Z-LYTE FRET; type: biochemical
Outline: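 Human Syk and c-Src (enzyme at 2000 or 3000 ng/mL respectively, pre-dilution) preincubated 2 hr at RT with compound at 1, 0.1, 0.01 or 0.001 μg/mL; FRET peptide added with ATP (60 μM Syk, 800 μM c-Src; solution concentrations), 1 hr. Protease development 1 hr; phosphorylation from coumarin/fluorescein emission ratio.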

[5] = test system: mitosis in PBMCs; test: (g) Cell mitosis assay; type: cell-based; details: Homo sapiens, PBMC, 5 μg/mL
Description: Peripheral blood mononucleocytes (PBMCs) from healthy subjects are separated from whole blood (Quintiles, London, UK) using a density gradient (Histopaque®-1077, Sigma-Aldrich, Poole, UK). The PBMCs (3 million cells per sample) are subsequently treated with 2% PHA (phytohaemagglutinin, Sigma-Aldrich, Poole, UK) for 48 hr, followed by a 20 hr exposure to varying concentrations of test compounds. At 2 hr before collection, PBMCs are treated with demecolcine (0.1 μg/mL; Invitrogen, Paisley, UK) to arrest cells in metaphase. To observe mitotic cells, PBMCs are permeabilized and fixed by adding Intraprep (50 μL; Beckman Coulter, France), and stained with anti-phospho-histone 3 ([…]; #9701; Cell Signalling, Danvers, Mass.) and propidium iodide (1 mg/mL; Sigma-Aldrich, Poole, UK) as previously described (Muehlbauer P. A. and Schuler M. J., Mutation Research, 2003, 537:117-130). Fluorescence is observed using an ATTUNE flow cytometer (Invitrogen, Paisley, UK), gating for lymphocytes.

Chain of c-Src (P12931 whole entry, looked up): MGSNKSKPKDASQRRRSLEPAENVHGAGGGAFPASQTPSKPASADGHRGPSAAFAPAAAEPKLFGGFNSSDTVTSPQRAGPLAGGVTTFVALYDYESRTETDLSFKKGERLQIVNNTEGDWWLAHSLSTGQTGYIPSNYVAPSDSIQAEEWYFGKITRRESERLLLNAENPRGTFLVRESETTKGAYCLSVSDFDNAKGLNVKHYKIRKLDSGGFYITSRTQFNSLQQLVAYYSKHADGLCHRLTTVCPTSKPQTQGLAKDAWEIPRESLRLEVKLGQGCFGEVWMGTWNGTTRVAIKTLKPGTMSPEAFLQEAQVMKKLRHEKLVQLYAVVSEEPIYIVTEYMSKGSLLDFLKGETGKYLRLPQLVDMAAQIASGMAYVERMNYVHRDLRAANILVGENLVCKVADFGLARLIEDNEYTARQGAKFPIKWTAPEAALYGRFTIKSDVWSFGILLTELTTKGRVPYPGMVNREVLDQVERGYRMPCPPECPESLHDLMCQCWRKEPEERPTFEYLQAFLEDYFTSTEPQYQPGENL
Chain of p38 MAPKα (MAPK14) (Q16539 whole entry): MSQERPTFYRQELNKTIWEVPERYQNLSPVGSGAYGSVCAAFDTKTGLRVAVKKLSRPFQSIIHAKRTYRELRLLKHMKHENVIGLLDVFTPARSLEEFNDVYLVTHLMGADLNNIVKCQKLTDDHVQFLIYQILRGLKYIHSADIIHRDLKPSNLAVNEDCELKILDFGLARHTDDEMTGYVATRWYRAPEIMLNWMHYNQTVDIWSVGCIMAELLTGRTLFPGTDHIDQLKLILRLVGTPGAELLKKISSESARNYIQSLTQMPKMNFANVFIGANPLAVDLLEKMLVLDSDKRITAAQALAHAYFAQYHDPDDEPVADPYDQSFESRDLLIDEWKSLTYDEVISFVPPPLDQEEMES

Structure (SMILES)	% Viability at 1 μg/mL [1] [%]	% Viability at 5 μg/mL [1] [%]	% Viability at 20 μg/mL [1] [%]	IC50 [2] [nM]	IC50 [3] [nM]	IC50 [4] [nM]	inhibition at 5 µg/mL [5] [%]
COc1cc(Nc2cc(Oc3ccc(NC(=O)Nc4cc(C(C)(C)C)cc(NS(C)(=O)=O)c4OC)c4ccccc34)ccn2)cc(OC)c1C(=O)NCCN1CCOCC1 [17(ae), 4-[[4-[[4-[[5-tert-butyl-3-(methanesulfonamido)-2-methoxy-phenyl]carbamoylamino]-1-naphthyl]oxy]-2-pyridyl]amino]-2,6-dimethoxy-N-(2-morpholinoethyl)benzamide]	93.1	98.5	92.9	10	112	31	30.6
C#Cc1cc(Nc2cc(Oc3ccc(NC(=O)Nc4cc(C(C)(C)C)cc(NS(C)(=O)=O)c4OC)c4ccccc34)ccn2)ccc1C(=O)NCCN1CCOCC1 [Example 15, 4-[[4-[[4-[[5-tert-Butyl-3-(methanesulfonamido)-2-methoxy-phenyl]carbamoylamino]-1-naphthyl]oxy]-2-pyridyl]amino]-2-ethynyl-N-(2-morpholinoethyl)benzamide]	99.5	75.0	74.5	64	163	43	62.3
COc1cc(Nc2cc(Oc3ccc(NC(=O)Nc4cc(C(C)(C)C)cc(NS(C)(=O)=O)c4OC)c4ccccc34)ccn2)ccc1C(=O)NCCN1CCSCC1 [17(l), 4-[[4-[[4-[[5-tert-butyl-3-(methanesulfonamido)-2-methoxy-phenyl]carbamoylamino]-1-naphthyl]oxy]-2-pyridyl]amino]-2-methoxy-N-(2-thiomorpholinoethyl)benzamide]	102.8	102.7	102.9	223	389	116	24.9
COc1cc(Nc2cc(Oc3ccc(NC(=O)Nc4cc(C(C)(C)C)cc(NS(C)(=O)=O)c4OC)c4ccccc34)ccn2)ccc1C(=O)NCCOCCOCCO [Example 16, 4-[[4-[[4-[[5-tert-Butyl-3-(methanesulfonamido)-2-methoxy-phenyl]carbamoylamino]-1-naphthyl]oxy]-2-pyridyl]amino]-N-[2-[2-(2-hydroxyethoxy)ethoxy]ethyl]-2-methoxy-benzamide]	90.1	52.5	19.1	34	107	22	50.1
COc1cc(Nc2cc(Oc3ccc(NC(=O)Nc4cc(C(C)(C)C)cc(NS(C)(=O)=O)c4OC)c4ccccc34)ccn2)ccc1C(=O)NCCN1CCCCC1 [17(p), 4-[[4-[[4-[[5-tert-butyl-3-(methanesulfonamido)-2-methoxy-phenyl]carbamoylamino]-1-naphthyl]oxy]-2-pyridyl]amino]-2-methoxy-N-[2-(1-piperidyl)ethyl]benzamide]	102.1	49.9	1.5	20	172	21	92
COCCOCCOCCNC(=O)c1ccc(Nc2cc(Oc3ccc(NC(=O)Nc4cc(C(C)(C)C)cc(NS(C)(=O)=O)c4OC)c4ccccc34)ccn2)cc1OC [Example 5, 4-((4-((4-(3-(5-(tert-Butyl)-2-methoxy-3-(methylsulfonamido)phenyl)ureido)naphthalen-1-yl)oxy)pyridin-2-yl)amino)-2-methoxy-N-(2-(2-(2-methoxyethoxy)ethoxy)ethyl)benzamide]				119	187	31	27.7
